Assay results as given in patent publication US20250064789A1, “KETOAMIDE DERIVATIVES AND PHARMACEUTICAL USES THEREOF” (priority 2022, published 2025).
Read-outs that look alike come from different tables or passages of the source.

Target: recombinant SARS-CoV-2 M^pro (Severe acute respiratory syndrome coronavirus 2 (2019-nCoV) (SARS-CoV-2), UniProt P0DTD1)
Experiment: Inhibition of SARS-CoV-2 M^pro enzyme activity (fluorescent substrate assay)
Type: biochemical
Conditions: inhibition of SARS-CoV-2 M^pro enzyme activity, read-out: IC50

Row | Compound | IC50 (values in nM) [nM] | IC50 (values given in μM) [nM]
1 | O=C(Cn1cc(-c2ccccc2)cn1)N[C@H](Cc1ccccc1)C(=O)C(=O)NCc1nccs1 [Compound 491] | 216 ± 7.3 | –
2 | O=C(CNC(=O)c1ccccc1F)N[C@H](Cc1ccccc1)C(=O)C(=O)NCc1nccs1 [Compound 481] | 998.3 ± 0.2 | –
3 | CC(C)(NC(=O)CCC1CCC(F)(F)CC1)C(=O)N[C@H](Cc1ccccc1)C(=O)C(=O)NCc1ccccn1 [Compound 171] | 8.9 ± 0.4 | –
4 | C[C@@H](NC(=O)C1CCC(F)(F)CC1)C(=O)NCC(=O)C(=O)NCc1ccccn1 [Compound 334] | – | > 5000
5 | O=C(CNC(=O)c1ccc(F)cc1)N[C@H](Cc1ccccc1)C(=O)C(=O)NCc1nccs1 [Compound 483] | 338.4 ± 3 | –
6 | O=C(NCc1ccccn1)C(=O)[C@@H](Cc1ccccc1)NC(=O)C1(NC(=O)[C@H]2CC[C@H](c3ccc(Cl)cc3)CC2)CCC1 [Compound 201] | 653.4 ± 4.1 | –
7 | C[C@H](C(=O)N[C@H](Cc1ccccc1)C(=O)C(=O)NCc1ccccn1)N(C)C(=O)c1ccc(F)cc1 [Compound 149] | 36.4 ± 7.4 | –
8 | CC(C)(NC(=O)NCC1CCC(F)(F)CC1)C(=O)N[C@H](Cc1ccccc1)C(=O)C(=O)NCc1ccccn1 [Compound 303] | 10.7 ± 1 | –
9 | O=C(NCc1cocn1)C(=O)[C@@H](Cc1ccccc1)NC(=O)c1ccccc1 [Compound 458] | – | 11400 ± 80
10 | O=C(CC1CCOCC1)NC1(C(=O)N[C@H](Cc2ccccc2)C(=O)C(=O)NCc2ccccn2)CCC1 [Compound 210] | 20.7 ± 1.1 | –
11 | O=C(NCc1ccccn1)C(=O)[C@@H](Cc1ccccc1)NC(=O)C1(NC(=O)[C@@H]2C[C@@H]3[C@H](C2)C3(F)F)CC(F)(F)C1 [Compound 235] | 28.6 ± 2.1 | –
12 | O=C(CC1CCC(F)(F)CC1)NCC(=O)N[C@H](Cc1ccccc1)C(=O)C(=O)NCc1cscn1 [Compound 422] | 17.1 ± 0.1 | –
13 | Cc1nc(CNC(=O)C(=O)[C@@H](Cc2ccccc2)NC(=O)[C@@H](C)NC(=O)C2CCC(F)(F)CC2)cs1 [Compound 351] | – | 1160 ± 320
14 | O=C(NCc1ccccn1)C(=O)[C@@H](Cc1ccccc1)NC(=O)C1(NC(=O)C2CCC(F)(F)CC2)CCCC1 [Compound 239] | 32.2 ± 1 | –
15 | CN(C)CC(NC(=O)C1CCC(F)(F)CC1)C(=O)N[C@H](Cc1ccccc1)C(=O)C(=O)NCc1ccccn1 (stereo partly shown) [Compound 232] | 60.7 ± 0.1 | –
16 | CS(=O)(=O)CC[C@@H](NC(=O)CC1CC(F)(F)C1)C(=O)N[C@H](Cc1ccccc1)C(=O)C(=O)NCc1nccs1 [Compound 569] | 18.8 ± 0.9 | –
17 | C[C@@H](NC(=O)C(C#N)Cc1ccccc1)C(=O)N[C@H](Cc1ccccc1)C(=O)C(=O)NCc1ccccn1 (stereo partly shown) [Compound 65] | 21.2 ± 0.8 | –
18 | O=C(Cn1cc(-c2cc(F)c(F)cc2F)cn1)N[C@H](Cc1ccccc1)C(=O)C(=O)NCc1nccs1 [Compound 506] | 105 ± 2.9 | –
19 | C[C@@H](NC(=O)c1ccccc1F)C(=O)N[C@H](Cc1ccccc1)C(=O)C(=O)NCc1ccccn1 [Compound 138] | 48.6 ± 0.4 | –
20 | O=C(NCc1ccccn1)C(=O)[C@@H](Cc1ccccc1)NC(=O)[C@H](NC(=O)C1CCC(F)(F)CC1)C1CCCCC1 [Compound 223] | 11.1 ± 0.3 | –
21 | O=C(CNC(=O)c1cc2ccccc2o1)N[C@H](Cc1ccccc1)C(=O)C(=O)NCc1ccccn1 [Compound 444] | 214.3 ± 1.2 | –
22 | O=C(Cc1cc(OC(F)(F)F)ccc1F)NC1(C(=O)N[C@H](Cc2ccccc2)C(=O)C(=O)NCc2ccccn2)CC1 [Compound 164] | 13.2 ± 0.5 | –

Row | Compound | IC50 (values in nM) [nM] | IC50 (values given in μM) [nM]
23 | O=C(NCc1ccccn1)C(=O)[C@@H](Cc1ccccc1)NC(=O)[C@H]1CC2CCCCC2N1C(=O)NCC1CC(F)(F)C1 (stereo partly shown) [Compound 308] | 13.9 ± 1.2 | –
24 | C[C@@H](NC(=O)[C@@H]1C[C@@H]2[C@H](C1)C2(F)F)C(=O)N[C@H](Cc1ccccc1)C(=O)C(=O)NCc1cscn1 [Compound 420] | 10.8 ± 0.7 | –
25 | O=C(NCc1ccccn1)C(=O)[C@@H](Cc1ccccc1)NC(=O)C1(C(=O)NC2CCC(F)(F)CC2)CC1 [Compound 319] | 37.1 ± 2.9 | –
26 | O=C(Cn1cc(C2CCC(F)(F)CC2)cn1)N[C@H](Cc1ccccc1)C(=O)C(=O)NCc1nccs1 [Compound 513] | 30.4 ± 0.8 | –
27 | O=C(CNC(=O)c1ccc(Cl)c(Cl)c1)N[C@H](Cc1ccccc1)C(=O)C(=O)NCc1ccccn1 [Compound 440] | 20.4 ± 0.4 | –
28 | O=C(NCc1ccccn1)C(=O)[C@@H](Cc1ccccc1)NC(=O)[C@@H]1C[C@@H]2CCC[C@@H]2N1C(=O)C1CCC(F)(F)CC1 [Compound 263] | – | 1560 ± 50
29 | COC[C@@H](NC(=O)NC1CC(F)(F)C1)C(=O)N[C@H](Cc1ccccc1)C(=O)C(=O)NCc1nccs1 [Compound 549] | 21.2 ± 0.6 | –
30 | CC(C)(OCc1ccc(OC(F)(F)F)cc1)C(=O)N[C@H](Cc1ccccc1)C(=O)C(=O)NCc1ccccn1 [Compound 17] | 19.8 ± 0.2 | –
31 | O=C(NCc1ccccn1)C(=O)[C@@H](Cc1ccccc1)NC(=O)[C@H]1C[C@@H]2C[C@@H]2N1C(=O)CC1CCC(F)(F)CC1 [Compound 273] | 17 ± 0.1 | –
32 | CC(C(=O)N[C@H](C)C(=O)N[C@H](Cc1ccccc1)C(=O)C(=O)NCc1ccccn1)C1CCCCC1 (stereo partly shown) [Compound 130] | 98.6 ± 6.8 | –
33 | O=C(CNC(=O)C1(F)CCCCC1)N[C@H](Cc1ccccc1)C(=O)C(=O)NCc1cscn1 [Compound 428] | 17.1 ± 0.1 | –
34 | O=C(N[C@@H](C1CC1)C(F)(F)F)NC1(C(=O)N[C@H](Cc2ccccc2)C(=O)C(=O)NCc2ccccn2)CCC1 [Compound 306] | 19.3 ± 1 | –
35 | CC[C@@H](NC(=O)C1CCC(F)(F)CC1)C(=O)N[C@H](Cc1ccccc1)C(=O)C(=O)NCc1nccs1 [Compound 535] | 35.7 ± 0.17 | –
36 | COC[C@@H](NC(=O)CC1CC1(F)F)C(=O)N[C@H](Cc1ccccc1)C(=O)C(=O)NCc1nccs1 (stereo partly shown) [Compound 396] | 48.8 ± 0.4 | –
37 | O=C(NCc1nccs1)C(=O)[C@@H](Cc1ccccc1)NC(=O)[C@H]1CC(F)(F)CN1C(=O)CC1CCC(F)(F)CC1 [Compound 401] | 19 ± 0.1 | –
38 | O=C(NCc1cscn1)C(=O)[C@@H](Cc1ccccc1)NC(=O)[C@H]1CC(F)(F)CN1C(=O)C1CCCC(F)(F)C1 (stereo partly shown) [Compound 434] | – | 2050 ± 20
39 | O=C(NCc1ccccn1)C(=O)[C@@H](Cc1ccccc1)NC(=O)C1(NC(=O)C2CCC(F)(F)CC2)CC1 [Compound 159] | 21.5 ± 5.7 | –
40 | O=C(NCc1nccs1)C(=O)[C@@H](Cc1ccccc1)NC(=O)[C@H]1CC(F)(F)CN1C(=O)CC1CC1(F)F (stereo partly shown) [Compound 405] | 104 ± 1.7 | –
41 | O=C(Cn1cc(-c2cc(F)cc(F)c2)cn1)N[C@H](Cc1ccccc1)C(=O)C(=O)NCc1nccs1 [Compound 502] | 47 ± 0.5 | –
42 | O=C(NCc1ccccn1)C(=O)[C@@H](Cc1ccccc1)NC(=O)C1(NC(=O)c2cc(Br)cc(OC(F)(F)F)c2)CC1 [Compound 163] | 20.8 ± 0.7 | –
43 | C[C@@H](NC(=O)C1(F)CCCCC1)C(=O)N[C@H](Cc1ccccc1)C(=O)C(=O)NCc1nccs1 [Compound 374] | 20.8 ± 1.6 | –
44 | C[C@@H](OCc1ccc(F)cc1)C(=O)N[C@H](Cc1ccccc1)C(=O)C(=O)NCc1ccc(Cl)cn1 [Compound 42] | 17.6 ± 0.4 | –

Row | Compound | IC50 (values in nM) [nM] | IC50 (values given in μM) [nM]
45 | C#CCC(NC(=O)C1CCC(F)(F)CC1)C(=O)N[C@H](Cc1ccccc1)C(=O)C(=O)NCc1ccccn1 (stereo partly shown) [Compound 231] | 35.4 ± 0.2 | –
46 | O=C(NCc1nccs1)C(=O)[C@@H](Cc1ccccc1)NC(=O)n1nc(C(F)(F)F)cc1-c1ccc(F)cc1 [Compound 531] | 598 ± 2.8 | –
47 | O=C(NCc1ccccn1)C(=O)[C@@H](Cc1ccccc1)NC(=O)C1(NC(=O)C2CC(F)(F)C2)CCC1 [Compound 204] | 36.7 ± 0.9 | –
48 | C[C@H](c1ccccc1)N1C[C@H](C(=O)N[C@H](C)C(=O)N[C@H](Cc2ccccc2)C(=O)C(=O)NCc2ccccn2)CC1=O [Compound 124] | 45.1 ± 0.6 | –
49 | O=C(NCc1cnc(Cl)s1)C(=O)[C@@H](Cc1ccccc1)NC(=O)c1ccccc1 [Compound 463] | – | 95200 ± 5990
50 | O=C(NCc1nccs1)C(=O)[C@@H](Cc1ccccc1)NC(=O)[C@H]1COCCN1C(=O)CC1CC(F)(F)C1 [Compound 408] | 14.9 ± 0.5 | –
51 | C[C@@H](NC(=O)C1CC2CCC1C2)C(=O)N[C@H](Cc1ccccc1)C(=O)C(=O)NCc1nccs1 (stereo partly shown) [Compound 371] | 31.7 ± 2.6 | –
52 | C[C@@H](NC(=O)c1ccnc(F)c1)C(=O)N[C@H](Cc1ccccc1)C(=O)C(=O)NCc1ccccn1 [Compound 108] | 66.4 ± 1.2 | –
53 | O=C(NCc1ccccn1)C(=O)[C@@H](Cc1ccccc1)NC(=O)C1(NC(=O)c2ccc(F)cc2)CC1 [Compound 170] | 19.4 ± 0.7 | –
54 | O=C(NCc1ccccn1)C(=O)[C@@H](Cc1ccccc1)NC(=O)[C@H]1COCCN1C(=O)CCC1CCC(F)(F)CC1 [Compound 291] | 13.1 ± 2.8 | –
55 | O=C(NCc1ccccn1)C(=O)[C@@H](Cc1ccccc1)NC(=O)[C@H]1Cc2ccccc2CN1C(=O)C1CCC(F)(F)CC1 [Compound 267] | 11.2 ± 0.3 | –
56 | C[C@@H](NC(=O)/C=C/c1ccc(F)cc1)C(=O)N[C@H](Cc1ccccc1)C(=O)C(=O)NCc1ccccn1 [Compound 109] | 168.9 ± 0.1 | –
57 | CC(C)(C(=O)N[C@H](Cc1ccccc1)C(=O)C(=O)NCc1ccccn1)n1cc(-c2ccccc2)cn1 [Compound 326, (R)-3-(2-methyl-2-(4-phenyl-1H-pyrazol-1-yl)propionamido)-2-oxo-4-phenyl-N-(pyridin-2-ylmethyl)butyramide] | 20.7 ± 0.5 | –
58 | CC(C)(O)[C@@H](NC(=O)C1CCC(F)(F)CC1)C(=O)N[C@H](Cc1ccccc1)C(=O)C(=O)NCc1ccccn1 [Compound 241] | 42.1 ± 1.6 | –
59 | COC[C@@H](NC(=O)NC1CCC(F)(F)CC1)C(=O)N[C@H](Cc1ccccc1)C(=O)C(=O)NCc1nccs1 [Compound 551] | 23.3 ± 3.1 | –
60 | O=C(NCc1nccs1)C(=O)[C@@H](Cc1ccccc1)NC(=O)c1ccccc1 [Compound 454] | – | 1300 ± 70
61 | C[C@@H](NC(=O)c1ccc(F)c(S(C)(=O)=O)c1)C(=O)N[C@H](Cc1ccccc1)C(=O)C(=O)NCc1ccccn1 [Compound 103] | 28.8 ± 1 | –
62 | C[C@@H](NC(=O)COc1ccc(Cl)cc1)C(=O)N[C@H](Cc1ccccc1)C(=O)C(=O)NCc1ccccn1 [Compound 84] | 40 ± 2.4 | –
63 | O=C(NCc1ccccn1)C(=O)[C@@H](Cc1ccccc1)NC(=O)C1(NC(=O)C2CCC(F)(F)CC2)CC1 [Compound 169] | 22.6 ± 3.7 | –
64 | C[C@@H](NC(=O)N1CC2(C1)CC(F)(F)C2)C(=O)N[C@H](Cc1ccccc1)C(=O)C(=O)NCc1ccccn1 [Compound 298] | 14.9 ± 0.1 | –
